# Data as given in patent publication US9446039B2, “Aminoheteroaryl compounds as MTH1 inhibitors” (CEMM—FORSCHUNGSZENTRUM FÜR MOLEKULARE MEDIZIN GMBH, priority 2012, dated 2016).
# Key:
# Assay type in all cases: binding
# [1] = biological target: T1, SW480 colon carcinoma cells lysate proteins (Homo sapiens, UniProt Q16543); settings: PreyGene CDC37
# T1 sequence (Q16543 1-378): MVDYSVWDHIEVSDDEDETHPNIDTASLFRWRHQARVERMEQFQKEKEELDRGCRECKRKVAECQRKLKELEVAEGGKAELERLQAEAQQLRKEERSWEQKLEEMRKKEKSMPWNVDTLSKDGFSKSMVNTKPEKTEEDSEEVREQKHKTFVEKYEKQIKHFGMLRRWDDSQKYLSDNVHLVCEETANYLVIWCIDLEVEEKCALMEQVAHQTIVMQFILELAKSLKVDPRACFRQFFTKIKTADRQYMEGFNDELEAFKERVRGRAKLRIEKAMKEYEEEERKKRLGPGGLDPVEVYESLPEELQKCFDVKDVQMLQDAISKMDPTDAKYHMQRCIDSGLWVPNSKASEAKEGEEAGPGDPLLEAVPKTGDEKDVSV
# [2] = biological target: SW480 colon carcinoma cells lysate proteins (Homo sapiens, UniProt Q9Y230); settings: PreyGene RUVBL2
# SW480 colon carcinoma cells lysate proteins (Homo sapiens, UniProt Q9Y230), sequence (Q9Y230 whole entry): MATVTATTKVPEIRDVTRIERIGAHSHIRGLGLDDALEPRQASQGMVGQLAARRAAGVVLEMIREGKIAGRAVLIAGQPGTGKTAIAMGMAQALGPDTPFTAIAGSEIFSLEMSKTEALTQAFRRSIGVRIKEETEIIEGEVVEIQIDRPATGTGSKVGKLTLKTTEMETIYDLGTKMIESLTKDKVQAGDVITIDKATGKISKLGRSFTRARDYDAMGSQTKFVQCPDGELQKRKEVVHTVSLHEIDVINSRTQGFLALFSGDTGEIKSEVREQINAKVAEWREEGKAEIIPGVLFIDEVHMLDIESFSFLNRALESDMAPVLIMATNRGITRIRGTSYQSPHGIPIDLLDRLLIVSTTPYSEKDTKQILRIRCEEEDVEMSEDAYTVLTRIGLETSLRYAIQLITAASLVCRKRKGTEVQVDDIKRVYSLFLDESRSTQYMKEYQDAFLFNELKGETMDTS
# [3] = biological target: T2, SW480 colon carcinoma cells lysate proteins (Homo sapiens, UniProt Q9Y617); settings: PreyGene PSAT1
# T2 sequence (Q9Y617 1-370): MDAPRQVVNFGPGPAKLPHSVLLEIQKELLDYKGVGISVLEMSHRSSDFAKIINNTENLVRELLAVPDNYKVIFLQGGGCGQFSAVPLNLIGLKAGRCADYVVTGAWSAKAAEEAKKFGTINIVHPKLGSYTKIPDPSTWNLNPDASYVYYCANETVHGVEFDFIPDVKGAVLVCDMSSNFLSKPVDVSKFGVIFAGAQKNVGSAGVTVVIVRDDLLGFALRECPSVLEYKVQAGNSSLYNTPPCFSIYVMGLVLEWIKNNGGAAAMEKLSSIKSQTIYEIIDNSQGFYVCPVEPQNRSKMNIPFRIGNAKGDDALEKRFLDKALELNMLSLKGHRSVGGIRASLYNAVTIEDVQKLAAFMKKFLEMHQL
# [4] = biological target: T3, SW480 colon carcinoma cells lysate proteins (Homo sapiens, UniProt P54577); settings: PreyGene YARS
# T3 sequence (P54577 1-528): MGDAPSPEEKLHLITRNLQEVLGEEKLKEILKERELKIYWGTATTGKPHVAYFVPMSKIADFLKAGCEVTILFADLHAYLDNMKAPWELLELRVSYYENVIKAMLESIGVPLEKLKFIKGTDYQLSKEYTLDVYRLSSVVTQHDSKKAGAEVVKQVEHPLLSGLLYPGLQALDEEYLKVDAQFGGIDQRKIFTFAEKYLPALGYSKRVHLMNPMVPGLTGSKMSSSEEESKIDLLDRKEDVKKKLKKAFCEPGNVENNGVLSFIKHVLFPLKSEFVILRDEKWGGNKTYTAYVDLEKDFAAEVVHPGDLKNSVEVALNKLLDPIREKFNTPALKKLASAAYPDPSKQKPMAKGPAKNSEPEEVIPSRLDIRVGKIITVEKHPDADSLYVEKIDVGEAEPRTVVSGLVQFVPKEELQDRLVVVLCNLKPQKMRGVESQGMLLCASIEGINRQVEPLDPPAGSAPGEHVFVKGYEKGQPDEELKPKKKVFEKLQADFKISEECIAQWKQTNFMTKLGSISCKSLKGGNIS
# [5] = biological target: T4, SW480 colon carcinoma cells lysate proteins (Homo sapiens, UniProt P51659); settings: PreyGene HSD17B4
# T4 sequence (P51659 1-736): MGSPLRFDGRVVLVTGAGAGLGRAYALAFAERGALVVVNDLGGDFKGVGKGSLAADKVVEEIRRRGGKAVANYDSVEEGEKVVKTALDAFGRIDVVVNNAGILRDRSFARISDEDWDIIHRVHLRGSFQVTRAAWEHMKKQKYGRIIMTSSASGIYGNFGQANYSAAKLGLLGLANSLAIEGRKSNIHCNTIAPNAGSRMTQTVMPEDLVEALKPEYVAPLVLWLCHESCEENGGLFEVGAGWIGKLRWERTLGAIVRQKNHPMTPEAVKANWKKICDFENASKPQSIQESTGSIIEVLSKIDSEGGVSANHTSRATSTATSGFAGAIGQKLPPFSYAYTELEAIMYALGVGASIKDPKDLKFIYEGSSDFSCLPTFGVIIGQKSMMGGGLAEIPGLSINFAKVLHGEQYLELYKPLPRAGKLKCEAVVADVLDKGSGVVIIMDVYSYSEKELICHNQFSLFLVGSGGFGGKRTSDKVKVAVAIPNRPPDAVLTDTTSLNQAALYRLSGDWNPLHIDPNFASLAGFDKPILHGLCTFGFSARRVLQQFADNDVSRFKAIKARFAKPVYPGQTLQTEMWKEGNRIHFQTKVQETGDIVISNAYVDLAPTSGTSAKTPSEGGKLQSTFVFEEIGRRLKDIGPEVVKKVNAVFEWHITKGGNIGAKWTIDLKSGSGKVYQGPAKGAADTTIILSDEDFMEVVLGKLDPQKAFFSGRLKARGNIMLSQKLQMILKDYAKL
# [6] = biological target: SW480 colon carcinoma cells lysate proteins (Homo sapiens, UniProt P63313); settings: PreyGene TMSB10
# SW480 colon carcinoma cells lysate proteins (Homo sapiens, UniProt P63313), sequence (P63313 whole entry): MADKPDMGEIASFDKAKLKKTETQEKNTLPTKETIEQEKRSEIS
smiles,measurement,setting,value
C[C@H](Oc1cc(-c2cnn(C3CCNCC3)c2)cnc1N)c1c(Cl)ccc(F)c1Cl [(5)-crizotinib],AvgP,[1],0.4343
same,SC.Exp. 1-1,[1],3
same,SC.Exp. 1-2,[1],3
same,SC.Exp. 2-1,[1],0
same,SC.Exp. 2-2,[1],0
same,Sum (SC.Exp.),[1],6
same,AvgP,[2],0.4297
same,SC.Exp. 1-1,[2],3
same,SC.Exp. 1-2,[2],3
same,SC.Exp. 2-1,[2],0
same,SC.Exp. 2-2,[2],0
same,Sum (SC.Exp.),[2],6
same,AvgP,[3],0.3916
same,SC.Exp. 1-1,[3],3
same,SC.Exp. 1-2,[3],3
same,SC.Exp. 2-1,[3],0
same,SC.Exp. 2-2,[3],0
same,Sum (SC.Exp.),[3],6
same,AvgP,[4],0.2511
same,SC.Exp. 1-1,[4],2
same,SC.Exp. 1-2,[4],1
same,SC.Exp. 2-1,[4],0
same,SC.Exp. 2-2,[4],0
same,Sum (SC.Exp.),[4],3
same,AvgP,[5],0.3179
same,SC.Exp. 1-1,[5],2
same,SC.Exp. 1-2,[5],3
same,SC.Exp. 2-1,[5],0
same,SC.Exp. 2-2,[5],0
same,Sum (SC.Exp.),[5],5
same,AvgP,[6],0.3518
same,SC.Exp. 1-1,[6],2
same,SC.Exp. 1-2,[6],2
same,SC.Exp. 2-1,[6],0
same,SC.Exp. 2-2,[6],0
same,Sum (SC.Exp.),[6],4
